In ChEMBL document CHEMBL5033993, “Design, Synthesis, and Evaluation of o-(Biphenyl-3-ylmethoxy)nitrophenyl Derivatives as PD-1/PD-L1 Inhibitors with Potent Anticancer Efficacy In Vivo” (J Med Chem, 2021):
Active and inactive are the calls of the source. The calls are words filed in the database; no cut-off is given here.

How the values were obtained:
Lewis lung carcinoma [1] = assay: Immunostimulatory activity in mouse lewis lung carcinoma cells allografted in C57BL6 mouse assessed as increase in infiltration of CD8+ cells at 2 to 5 mg/kg, ig for 21 days by Flow cytometric analysis; assay type: functional, organism-based; conditions: dose 2-5 mg/kg, time 21.0 day
[2] = molecular target: T1, Programmed cell death protein 1/Programmed cell death 1 ligand 1 (Homo sapiens, UniProt Q15116+Q9NZQ7); assay: Inhibition of human PD-1/PD-L1 interaction assessed as disruption of PD-1/PD-L1 complex incubated for 2 hrs by Tag-1 Eu3+ and anti-Tag2-XL665 based HTRF assay; assay type: protein-complex assay
T1 sequence (Q15116 whole entry): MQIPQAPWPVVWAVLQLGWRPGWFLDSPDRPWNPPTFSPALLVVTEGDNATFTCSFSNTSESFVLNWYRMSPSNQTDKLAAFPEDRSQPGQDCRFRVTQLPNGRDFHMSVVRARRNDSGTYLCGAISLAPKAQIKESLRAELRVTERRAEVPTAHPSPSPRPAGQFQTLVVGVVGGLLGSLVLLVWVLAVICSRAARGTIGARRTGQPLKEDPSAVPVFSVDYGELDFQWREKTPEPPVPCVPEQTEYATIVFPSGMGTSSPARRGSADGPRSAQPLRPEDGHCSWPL
T1 sequence (Q9NZQ7 whole entry): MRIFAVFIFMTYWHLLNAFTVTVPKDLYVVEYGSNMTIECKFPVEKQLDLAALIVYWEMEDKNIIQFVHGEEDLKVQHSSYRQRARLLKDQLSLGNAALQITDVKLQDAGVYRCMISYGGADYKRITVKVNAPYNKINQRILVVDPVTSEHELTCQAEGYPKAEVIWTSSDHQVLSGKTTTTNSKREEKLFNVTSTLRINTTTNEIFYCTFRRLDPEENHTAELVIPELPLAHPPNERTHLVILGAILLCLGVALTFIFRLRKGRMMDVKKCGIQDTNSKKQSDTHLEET

[3] = molecular target: T1, Programmed cell death protein 1/Programmed cell death 1 ligand 1; assay: Potency index, ratio of BMS-202 IC50 to test compound IC50 for inhibition of human PD-1/PD-L1 interaction assessed as disruption of PD-1/PD-L1 complex incubated for 2 hrs by Tag-1 Eu3+ and anti-Tag2-XL665 based HTRF assay; assay type: protein-complex assay
[4] = molecular target: Programmed cell death 1 ligand 1 (Mus musculus) (UniProt Q9EP73); assay: Binding affinity to PDL1 in mouse lewis lung carcinoma cells assessed as thermal stability at 0.1 to 100 nM at 58 degC after 12 hrs by CESTA analysis; assay type: tissue-based; conditions: Lewis lung carcinoma cell line, dose 0.1-100 nM
Chain of Programmed cell death 1 ligand 1 (Mus musculus) (Q9EP73 whole entry): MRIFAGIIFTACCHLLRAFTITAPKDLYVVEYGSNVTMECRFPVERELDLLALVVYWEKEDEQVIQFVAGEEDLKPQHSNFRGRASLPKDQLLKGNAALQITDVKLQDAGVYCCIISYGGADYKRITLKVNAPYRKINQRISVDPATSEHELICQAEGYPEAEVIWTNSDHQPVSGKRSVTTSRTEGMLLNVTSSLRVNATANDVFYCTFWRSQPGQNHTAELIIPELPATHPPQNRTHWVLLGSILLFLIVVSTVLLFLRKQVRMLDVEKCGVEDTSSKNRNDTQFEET

[5] = molecular target: Programmed cell death 1 ligand 1 (Mus musculus) (UniProt Q9EP73); assay: Binding affinity to PDL1 in mouse lewis lung carcinoma cells assessed as thermal stability at 3 nM at 43 to 70 degC after 12 hrs by CESTA analysis; conditions: Lewis lung carcinoma cell line
T-cell [6] = assay: Upregulation of IFNgamma protein expression in CON-A stimulated C57BL6 mouse lymphnode T cell co-cultured with Lewis lung carcinoma cell line at 0.3 to 30 nM by ELISA; assay type: functional, tissue-based; conditions: dose 0.3-30 nM
Lewis lung carcinoma [7] = assay: Immunostimulatory activity in mouse lewis lung carcinoma cells allografted in C57BL6 mouse assessed as increase in infiltration of IFNgamm+/CD4+ cells at 2 to 5 mg/kg, ig for 21 days by Flow cytometric analysis; assay type: functional, organism-based; conditions: dose 2-5 mg/kg, time 21.0 day
Lewis lung carcinoma [8] = assay: Immunostimulatory activity in mouse lewis lung carcinoma cells allografted in C57BL6 mouse assessed as increase in infiltration of CD8+/CD45+/CD3+ cells at 2 to 5 mg/kg, ig for 21 days by Flow cytometric analysis; assay type: functional, organism-based; conditions: dose 2-5 mg/kg, time 21.0 day
PBMC [9] = assay: Upregulation of IFNgamma protein expression in CD3/CD28/PD-L1 stimulated PBMC (unknown origin) at 0.3 to 30 nM by ELISA; assay type: functional, tissue-based; conditions: Homo sapiens, dose 0.3-30 nM
PBMC [10] = assay: Induction of immuno-regulatory activity in CD3/CD28/PD-L1 stimulated PBMC (unknown origin) at 0.3 to 30 nM by Western blot analysis; assay type: functional, tissue-based; conditions: Homo sapiens, dose 0.3-30 nM
[11] = Cytotoxicity against mouse lewis lung carcinoma cells assessed as reduction in cell viability at 0.3 to 3000 nM and measured after 24 to 72 hrs by MTT assay; assay type: cell-based; conditions: 3 µM, dose lower 0.3 nM, time lower 24 hrs, dose upper 3000 nM, time upper 72 hrs
T-cell [12] = assay: Cytotoxicity against C57BL6 mouse lymphnode T cell cells assessed as reduction in cell viability at 3000 nM and measured after 24 to 72 hrs by MTT assay; assay type: cell-based; conditions: 3 µM, time 24-72 hrs
Lewis lung carcinoma [13] = assay: Anti-tumor activity against mouse lewis lung carcinoma cells allografted in C57BL6 mouse assessed as reduction in tumor growth at 2 to 5 mg/kg, ig for 21 days; assay type: functional, organism-based; conditions: dose 2-5 mg/kg, time 21.0 day
[14] = Anti-tumor activity against mouse lewis lung carcinoma cells allografted in C57BL6 mouse assessed as reduction in tumor growth at 5 mg/kg, ig for 21 days relative to control; assay type: functional; conditions: po, 504 h, time 21 day, read-out: TGI
[15] = Anti-tumor activity against mouse lewis lung carcinoma cells allografted in C57BL6 mouse assessed as reduction in tumor growth at 2 mg/kg, ig for 21 days relative to control; assay type: functional; conditions: po, 504 h, time 21 day, read-out: TGI
Mus musculus [16] = assay: Toxicity in C57BL6 mouse allografted with mouse lewis lung carcinoma cells assessed as reduction body weight at 2 mg/kg, ig for 21 days; assay type: organism-based; conditions: in vivo, po, 504 h, time 21 day
Mus musculus [17] = assay: Toxicity in C57BL6 mouse allografted with mouse lewis lung carcinoma cells assessed as reduction body weight at 5 mg/kg, ig for 21 days; assay type: organism-based; conditions: in vivo, po, 504 h, time 21 day
Lewis lung carcinoma [18] = assay: Anti-tumor activity against mouse lewis lung carcinoma cells allografted in C57BL6 mouse assessed as reduction PCNA protein expression level at 2 to 5 mg/kg, ig for 21 days by immunohistochemistry analysis; assay type: functional, organism-based; conditions: dose 2-5 mg/kg, time 21.0 day
Lewis lung carcinoma [19] = assay: Induction of apoptosis in mouse lewis lung carcinoma cells allografted in C57BL6 mouse assessed as Increase in TUNEL positive cells at 2 to 5 mg/kg, ig for 21 days by TUNEL assay; assay type: functional, organism-based; conditions: dose 2-5 mg/kg, time 21.0 day
Mus musculus [20] = assay: Upregulation of IFNgamma protein expression in C57BL6 mouse serum allografted with mouse lewis lung carcinoma cells at 2.5 to 5 mg/kg, ig for 21 days by ELISA; assay type: functional, organism-based; conditions: dose 2.5-5 mg/kg, time 21.0 day
Lewis lung carcinoma [21] = assay: Immunostimulatory activity in mouse lewis lung carcinoma cells allografted in C57BL6 mouse assessed as increase in infiltration of total immune cells at 2 to 5 mg/kg, ig for 21 days by Flow cytometric analysis; assay type: functional, organism-based; conditions: dose 2-5 mg/kg, time 21.0 day
Lewis lung carcinoma [22] = assay: Immunostimulatory activity in mouse lewis lung carcinoma cells allografted in C57BL6 mouse assessed as increase in infiltration of T cells at 2 to 5 mg/kg, ig for 21 days by Flow cytometric analysis; assay type: functional, organism-based; conditions: dose 2-5 mg/kg, time 21.0 day

## Cc1c(COc2cc(OCc3cccc(C#N)c3)c(CN[C@H](C(=O)O)[C@@H](C)O)cc2[N+](=O)[O-])cccc1-c1ccccc1
Lewis lung carcinoma [1]
  Activity: Active
[2]
  IC50: 2.7 nM
[3]
  Ratio IC50: 25
[4]
  Activity: Dose-Dependent Effect
[5]
  Activity: Active
T-cell [6]
  Activity: Dose-Dependent Effect
Lewis lung carcinoma [7]
  Activity: Active
Lewis lung carcinoma [8]
  Activity: Active
PBMC [9]
  Activity: Dose-Dependent Effect
PBMC [10]
  Activity: Dose-Dependent Effect
[11]
  Activity: Non-Toxic
T-cell [12]
  Activity: Non-Toxic
Lewis lung carcinoma [13]
  TGI: Dose-Dependent Effect
[14]
  inhibition in vivo at 5 mg/kg: 48.5%
[15]
  inhibition in vivo at 2 mg/kg: 17.3%
Mus musculus [16]
  Activity: Non-Toxic
Mus musculus [17]
  Activity: Non-Toxic
Lewis lung carcinoma [18]
  Activity: Dose-Dependent Effect
Lewis lung carcinoma [19]
  Activity: Dose-Dependent Effect
Mus musculus [20]
  Activity: Dose-Dependent Effect
Lewis lung carcinoma [21]
  Activity: Active
Lewis lung carcinoma [22]
  Activity: Active
